These are literature values, as cited in patent US20230338587A1, “METHOD OF TREATING PSMA-EXPRESSING CANCERS” (ADVANCED ACCELERATOR APPLICATIONS INTERNATIONAL SA, priority 2020, published 2023).

For “XOMA 089: fully human monoclonal antibody that specifically binds and neutralizes TGF-beta 1 and 2 ligands”, the “cross-reactivity with cynomolgus monkey TGF-β” value with cynomolgus monkey TGF-β is “cross-reacts”. Also, the “cross-reactivity with rodent TGF-β” value with rodent TGF-β is listed as “cross-reacts”.
